Data: article PMC4640659, “Antidepressant- and Anxiolytic-Like Effects of New Dual 5-HT1A and 5-HT7 Antagonists in Animal Models” (PLoS ONE, 2015)
Entries after “also recorded” stand apart in the source; their conditions may differ. Structures can show the parent of a compound that is named as a salt.

Columns and labels:
mice [1] = test: Four-plate test in mice; format: in vivo
mice [2] = test: Forced swim test (FST) in mice; format: in vivo; conditions: for Decrease of immobility time: vs control; for Effect on immobility time, given alone at sub-effective dose: i.p., fluoxetine 10, reboxetine 5, bupropion 2.5, HBK-14 1.25, HBK-15 0.625 mg/kg
Procedure: The studies were carried out on mice according to the method described by Porsolt et al.. The animals were dropped individually into glass cylinders (height 25 cm, diameter 10 cm) containing 10 cm of water, maintained at 23–25°C. Mice were left in the cylinder for 6 min. […] The mouse was judged to be immobile when it remained floating passively in the water.

levels of serotonin = test system: levels of serotonin; parameters: method as in PMID 9044239; conditions: mice, 3-day treatment 200 mg/kg; cited from earlier work
rats [3] = test: Elevated plus maze (EPM) test in rats; format: in vivo
Excerpt: Plus-maze apparatus (an automated device produced by Campden Instruments Ltd, UK) made of durable, high density, nonporous black plastic, elevated to a height of 50 cm, consisted of two open arms (50 cm x 10 cm) and two closed arms (50 cm x 10 cm, and 30 cm high walls), arranged so that the two arms of each type were opposite each other. Floor of the plus-maze was made of infrared transparent material what means that there are no visible sensors. The plus-maze was placed in a darkened room; only the centre of the apparatus was illuminated with low-density light (30 lux measured on the maze level). Plus-maze apparatus was connected to PC software by control chassis. Each rat was gently placed in the centre of the plus-maze, facing one of the closed arms, immediately after a 5-min adaptation period in a plastic black box (60 cm x 60 cm x 35 cm). During a 5-min test period, automated Motor Monitor System recorded the number of entries into the closed and open arms, the time spent in either type of the arms. After each trial the maze was wiped clean. Studied compounds and reference drug were administered (i.p.) 30 min before the test.

rats [4] = test: FST in rats; format: in vivo
Procedure: The experiment was carried out according to the method of Detke et al. [33]. On the first experimental day rats were placed individually in Plexiglas cylinders (40 cm height, 18 cm in diameter) containing 30 cm of water maintained at 25°C for 15 min. After that time the rats were placed for 30 min under a 60-W bulb to dry. 24 hours after the pre-test, the rats were placed again in the cylinders and the total duration of immobility (when a rat remained floating in the water without struggling and was making only those movements necessary to keep its head above water), swimming (when a rat was making active swimming motions, more than necessary to merely maintain its head above water, e.g. moving around in the cylinder) and climbing (when a rat was making active movements with its forepaws in and out of the water, usually directed against the walls) was recorded during the whole 5-min test period. Fresh water was used for each animal.

5-HT6 receptors = conditions: authors' former studies; cited from earlier work
[5] = target: T1, human serotonin 5-HT7 receptor (Homo sapiens, UniProt P34969); test: cAMP functional assay (LANCE Ultra TR-FRET), CHO-K1 cells; format: cell-based; conditions: for Kb / Antagonist activity weaker than reference antagonist SB-269970 / Emax: 5-HT7; for Kb: Cheng-Prusoff equation, read-out: Antagonist mode Kb; for Antagonist activity weaker than reference antagonist SB-269970: range over HBK-14 and HBK-15; for Emax: CHO-K1, mean of two independent experiments in duplicate, read-out: Agonist mode Emax
T1 construct: host or cells: CHO-K1 (with CRE-bla reporter)
Procedure: CHO-K1 cells were transfected with a beta lactamase (bla) reporter gene under control of the cyclic AMP response element (CRE) (Life Technologies).
Thawed cells were resuspended in stimulation buffer (HBSS, 5 mM HEPES, 0.5 IBMX, and 0.1% BSA at pH 7.4) at 2x10^5 cells/ml for 5-HT7 receptor. The same volume (10 μl) of cell suspension was added to tested compounds for 5-HT7 receptor. Samples were loaded onto a white opaque half area 96-well microplate. […] The agonist and antagonist were added simultaneously. Cell stimulation was performed for 1h at room temperature. After incubation, cAMP measurements were performed with homogeneous TR-FRET immunoassay using the LANCE Ultra cAMP kit (PerkinElmer, USA). 10 μl of EucAMP Tracer Working Solution and 10 μl of ULight-anti-cAMP Tracer Working Solution were added, mixed, and incubated for 1 h. The TR-FRET signal was read on an EnVision microplate reader (PerkinElmer, USA).

human 5-HT2A receptor = target: T2, human 5-HT2A receptor (Homo sapiens, UniProt P28223); test: Radioligand binding, [3H]-ketanserin, CHO-K1 cell membranes; conditions: read-out: Serotonergic Ki 5-HT2A
T2 construct: expressed in transfected cells; host or cells: CHO-K1
Procedure: Radioligand binding was performed using membranes from CHO-K1 cells stably transfected with the human 5-HT2A receptor. Monolayer of CHO-K1 cells with stable expression of human receptor after reaching about 90% confluence was washed twice with PBS. After that the cells were scrapped and collected to centrifuge tubes. About 20 volumes of assay buffer was added to each tube and cells were homogenized (3 x 10 sec., 24 000 rpm; Ultra Turrax T25B homogenizator, IKA Labortechnik, USA). Tubes were centrifuged (20 min., 30 000 x g, about 4°C; 3K30 centrifuge, Sigma Laborzentrifugen, Germany). Supernatant was discarded and appropriate volume of assay buffer with 10% glycerol was added and homogenization was repeated. Membrane suspension was aliquoted into cryotubes, freezed in liquid nitrogen and stored until assay in -80°C. Membrane protein concentration was determined by BCA method. Immediately before assay frozen membranes were thawed quickly (about 35°C), mixed and homogenized (60 sec., 24,000 rpm) with appropriate volume of assay buffer to reach desired membrane protein concentration. All assays were carried out in duplicates. […] Microplate was covered with a sealing tape, mixed and incubated for 60 minutes at 27°C. […] Radioactivity was counted in MicroBeta2 scintillation counter (PerkinElmer) at approximately 30% efficiency. Inhibition constants (Ki) were calculated.

α1-adrenoceptor = test: Radioligand binding, [3H]-prazosin, rat cerebral cortex; conditions: read-out: Adrenergic Ki α1
5-HT1A receptors = conditions: authors' previous studies; cited from earlier work
[6] = target: T3, Serotonin transporter (SERT) (Rattus norvegicus, UniProt P31652); test: Radioligand binding, [3H]-citalopram, rat cerebral cortex; conditions: read-out: Serotonergic Ki SERT
T3 construct: Rat cerebral cortex was homogenized; from tissue; host or cells: rat cerebral cortex
Procedure: The supernatant was decanted and pellet was re-suspended in 30 volumes of buffer and centrifuged again. The resulting pellet was re-suspended in the same quantity of the buffer and centrifuged third time in the same conditions. […] Ki values were calculated.

human D2 receptor = target: T4, human D2 receptor (Homo sapiens, UniProt P14416); test: Radioligand binding, [3H]-methylspiperon, CHO-K1 cell membranes; conditions: read-out: Dopaminergic Ki D2
T4 construct: expressed in transfected cells; host or cells: CHO-K1
Procedure: Radioligand binding was performed using membranes from CHO-K1 cells stably transfected with the human D2 receptor. All assays were carried out in duplicates. […] (+)-butaclamol (10 μM) was used to define nonspecific binding. Microplate was covered with a sealing tape, mixed and incubated for 60 minutes at 37°C. The reaction was terminated by rapid filtration through GF/C filter mate pre-soaked with 0.3% polyethyleneimine for 30 minutes. Ten rapid washes with 200 μl 50 mM Tris buffer (4°C, pH 7.4) were performed using automated harvester system Harvester-96 MACH III FM (Tomtec). The filter mates were dried at 37°C in forced air fan incubator and then solid scintillator MeltiLex was melted on filter mates at 90°C for 5 minutes. Radioactivity was counted in MicroBeta2 scintillation counter (PerkinElmer) at approximately 30% efficiency. Ki values were calculated.

5-HT7 receptors = conditions: authors' previous studies; cited from earlier work
[7] = pCPA 200 mg/kg i.p. once daily for 3 days
[8] = 1.25 mg/kg i.p. 30 min before test
[9] = 2.5 mg/kg i.p. 30 min before test
[10] = i.p., ANOVA over the doses tested
[11] = 2.5 mg/kg i.p., pCPA interaction experiment (Fig 8A, 8B)
[12] = 5 mg/kg i.p. 30 min before test

T1 sequence (P34969 whole entry): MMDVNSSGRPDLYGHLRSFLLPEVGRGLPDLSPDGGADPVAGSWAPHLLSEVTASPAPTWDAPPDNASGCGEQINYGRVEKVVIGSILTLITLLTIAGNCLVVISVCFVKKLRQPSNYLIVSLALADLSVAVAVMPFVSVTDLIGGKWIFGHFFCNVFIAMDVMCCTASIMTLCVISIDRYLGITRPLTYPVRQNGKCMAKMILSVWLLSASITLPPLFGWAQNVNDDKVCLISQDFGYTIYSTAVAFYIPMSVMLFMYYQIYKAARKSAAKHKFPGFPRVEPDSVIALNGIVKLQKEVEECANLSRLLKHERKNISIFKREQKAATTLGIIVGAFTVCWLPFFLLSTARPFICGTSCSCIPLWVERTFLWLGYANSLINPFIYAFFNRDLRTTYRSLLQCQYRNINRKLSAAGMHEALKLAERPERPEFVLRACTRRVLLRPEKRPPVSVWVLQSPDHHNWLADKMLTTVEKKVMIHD
T2 sequence (P28223 whole entry): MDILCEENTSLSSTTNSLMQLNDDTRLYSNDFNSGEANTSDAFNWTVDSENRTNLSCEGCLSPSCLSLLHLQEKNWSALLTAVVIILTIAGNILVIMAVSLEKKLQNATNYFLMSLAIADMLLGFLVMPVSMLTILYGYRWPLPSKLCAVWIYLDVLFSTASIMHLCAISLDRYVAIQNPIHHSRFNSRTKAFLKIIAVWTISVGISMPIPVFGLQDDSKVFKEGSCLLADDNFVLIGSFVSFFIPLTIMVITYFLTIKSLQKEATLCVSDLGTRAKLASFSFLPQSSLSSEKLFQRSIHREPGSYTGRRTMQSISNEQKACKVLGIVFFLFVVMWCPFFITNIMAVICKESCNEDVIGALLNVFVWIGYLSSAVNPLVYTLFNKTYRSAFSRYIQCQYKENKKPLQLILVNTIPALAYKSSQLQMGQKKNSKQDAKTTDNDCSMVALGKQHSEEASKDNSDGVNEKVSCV
T4 sequence (P14416 whole entry): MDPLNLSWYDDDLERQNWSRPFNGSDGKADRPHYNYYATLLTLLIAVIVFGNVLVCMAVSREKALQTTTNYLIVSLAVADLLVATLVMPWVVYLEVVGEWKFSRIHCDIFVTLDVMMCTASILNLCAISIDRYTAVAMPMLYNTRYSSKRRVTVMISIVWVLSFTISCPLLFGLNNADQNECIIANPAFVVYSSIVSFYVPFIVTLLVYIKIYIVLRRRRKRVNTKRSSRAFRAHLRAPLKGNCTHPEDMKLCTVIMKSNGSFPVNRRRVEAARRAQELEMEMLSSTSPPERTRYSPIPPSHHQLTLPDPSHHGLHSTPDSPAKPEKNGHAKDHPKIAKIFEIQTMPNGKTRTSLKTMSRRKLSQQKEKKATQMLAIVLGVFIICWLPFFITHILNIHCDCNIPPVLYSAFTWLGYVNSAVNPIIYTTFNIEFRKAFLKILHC
T3 sequence (P31652 whole entry): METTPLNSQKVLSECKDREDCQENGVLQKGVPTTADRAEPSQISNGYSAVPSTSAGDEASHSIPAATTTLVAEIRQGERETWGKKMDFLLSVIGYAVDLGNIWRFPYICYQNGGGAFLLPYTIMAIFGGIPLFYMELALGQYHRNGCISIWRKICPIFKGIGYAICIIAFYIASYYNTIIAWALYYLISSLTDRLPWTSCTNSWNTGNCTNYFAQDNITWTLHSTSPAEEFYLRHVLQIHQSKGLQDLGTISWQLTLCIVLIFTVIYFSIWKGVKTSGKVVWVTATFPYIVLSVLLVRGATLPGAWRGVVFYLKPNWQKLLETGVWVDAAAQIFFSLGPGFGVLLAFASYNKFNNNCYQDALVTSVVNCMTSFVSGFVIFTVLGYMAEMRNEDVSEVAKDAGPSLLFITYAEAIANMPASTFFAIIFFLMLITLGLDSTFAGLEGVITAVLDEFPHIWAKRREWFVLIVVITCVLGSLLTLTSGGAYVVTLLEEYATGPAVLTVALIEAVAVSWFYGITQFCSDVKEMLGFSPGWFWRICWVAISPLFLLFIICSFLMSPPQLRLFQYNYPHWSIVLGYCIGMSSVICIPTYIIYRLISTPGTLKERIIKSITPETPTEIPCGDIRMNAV

N[C@@H](Cc1ccc(Cl)cc1)C(=O)O (racemic) [pCPA, p-Chlorophenylalanine, reference compound]
Effect on the number of punished crossings, given alone (mice [1]; [7]): showed no effect; also recorded: had no effect | Effect on immobility, given alone (mice [2]; [7]): did not influence immobility time | Reduction of the levels of serotonin in cortex (levels of serotonin): around 30% | Reduction of the levels of serotonin in diencephalon (levels of serotonin): ~35% | Reduction of the levels of serotonin in midbrain (levels of serotonin): ~24% | Reduction of the levels of serotonin in pons & medulla (levels of serotonin): ~34%

CN1C(=O)CN=C(c2ccccc2)c2cc(Cl)ccc21 [Diazepam, diazepam, reference compound]
Increase of the number of punished crossings (mice [1]; [8]): 62% | Increase of the number of punished crossings (mice [1]; [9]): 73% | Increase of the percentage of open-arm entries (rats [3]; [9]): 131% | Increase of the percentage of time spent in the open arms (rats [3]; [9]): 672%

CN(C)CCC[C@@]1(c2ccc(F)cc2)OCc2cc(C#N)ccc21 [Escitalopram, escitalopram, reference compound]
Decrease of immobility time (mice [2]; [9]): 42% | Increase of swimming (rats [4]; 30 mg/kg i.p.): 171% | Decrease of immobility time (rats [4]; 30 mg/kg i.p. 30 min before test): 48% | Effect on duration of climbing (rats [4]; [10]): no influence

COc1ccccc1N1CCN(CCOCCOc2c(C)cccc2C)CC1 [HBK-14, 1-{2-[2-(2,6-dimethlphenoxy)ethoxy]ethyl}-4-(2-methoxyphenyl)piperazynine hydrochloride]
Ki (5-HT6 receptors): 9.97 µM | IC50 [5]: 77 nM | Kb [5]: 24 nM | Antagonist activity weaker than reference antagonist SB-269970 [5]: 51-147 fold | Emax [5]: 19% | Increase of the number of punished crossings (mice [1]; [9]): 68% | Increase of the number of punished crossings (mice [1]; [11]): 105% | Increase of the number of punished crossings (mice [1]; [12]): 87% | Decrease of immobility time (mice [2]; [9]): 30% | Reduction of immobility (mice [2]; 2.5 mg/kg i.p., pCPA interaction experiment (Fig 5A)): 25% | Decrease of immobility time (mice [2]; [12]): 31% | Effect on immobility time, given alone at sub-effective dose (mice [2]): none of tested compounds (HBK-14 1.25 mg/kg and HBK-15 0.625 mg/kg) administered alone affected the mouse immobility | Ki (human 5-HT2A receptor): 264 nM | Increase of swimming behaviour (rats [4]; 5 mg/kg i.p.): 185% | Decrease of immobility time (rats [4]; [12]): 38% | Effect on duration of climbing (rats [4]; [10]): no significant effect | Ki (α1-adrenoceptor): 23 nM | Increase of the percentage of open-arm entries (rats [3]; [9]): 90% | Increase of the percentage of time spent in the open arms (rats [3]; [9]): 591% | Ki (5-HT1A receptors): 41 nM | Ki [6]: 3500 nM | Ki (human D2 receptor): 219 nM | Ki (5-HT7 receptors): 156 nM

COc1ccccc1N1CCN(CCOCCOc2c(C)cccc2Cl)CC1 [HBK-15, 2-[2-(2-chloro-6-methylphenoxy)ethoxy]ethyl-4-(2-methoxyphenyl)piperazynine dihydrochloride]
Ki (5-HT6 receptors): 9.62 µM | IC50 [5]: 220 nM | Kb [5]: 69 nM | Antagonist activity weaker than reference antagonist SB-269970 [5]: 51-147 fold | Emax [5]: 0% | Increase of the number of punished crossings (mice [1]; [9]): 52% | Increase of the number of punished crossings (mice [1]; 2.5 mg/kg i.p., WAY-100635 interaction experiment (Fig 8C, 8D), 2.5 mg/kg): 111% | Increase of the number of punished crossings (mice [1]; [11]): 109% | Increase of the number of punished crossings (mice [1]; [12]): 88% | Decrease of immobility time (mice [2]; [8]): 40% | Reduction of immobility (mice [2]; 1.25 mg/kg i.p., pCPA interaction experiment (Fig 5B)): 22% | Decrease of immobility time (mice [2]; [9]): 42% | Decrease of immobility time (mice [2]; [12]): 46% | Effect on immobility time, given alone at sub-effective dose (mice [2]): none of tested compounds (HBK-14 1.25 mg/kg and HBK-15 0.625 mg/kg) administered alone affected the mouse immobility | Ki (human 5-HT2A receptor): 109 nM | Increase of swimming time (rats [4]; 1.25 mg/kg i.p.): 166% | Decrease of immobility time (rats [4]; [8]): 30% | Increase of swimming time (rats [4]; 2.5 mg/kg i.p.): 191% | Decrease of immobility time (rats [4]; [9]): 38% | Effect on duration of climbing (rats [4]; [10]): no significant influence | Ki (α1-adrenoceptor): 13 nM | Increase of the percentage of open-arm entries (rats [3]; [12]): 89% | Increase of the percentage of time spent in the open arms (rats [3]; [12]): 198% | Ki (5-HT1A receptors): < 1 nM | Ki [6]: 529 nM | Ki (human D2 receptor): 54 nM | Ki (5-HT7 receptors): 34 nM

CN(C)CCCN1c2ccccc2CCc2ccccc21 [Imipramine, imipramine, reference compound]
Decrease of immobility time (mice [2]; [12]): 50% | Decrease of immobility time (rats [4]; 10 mg/kg i.p. 30 min before test): 51% | Effect on duration of swimming (rats [4]; [10]): no significant effect

Cc1ccc(N(CC2=NCCN2)c2cccc(O)c2)cc1 [Phentolamine, phentolamine, reference compound]
Ki (α1-adrenoceptor): 9 nM

COc1ccccc1N1CCN(CCN(C(=O)C2CCCCC2)c2ccccn2)CC1.Cl.Cl.Cl [WAY-100635, N-{2-[4-(2-methoxyphenyl)-1-piperazinyl]ethyl}-N-(2-pyridinyl)cyclohexanecarboxamide trihydrochloride, reference compound]
Effect on the number of punished crossings, given alone (mice [1]; WAY-100635 0.1 mg/kg s.c., 0.1 mg/kg): had no effect; also recorded: showed no effect | Effect on duration of immobility time, given alone (mice [2]; WAY-100635 0.1 mg/kg s.c.): had no effect

CC(NC(C)(C)C)C(=O)c1cccc(Cl)c1 (stereo not shown) [bupropion, reference compound]
Effect on immobility time, given alone at sub-effective dose (mice [2]): did not affect

CNCCC(Oc1ccc(C(F)(F)F)cc1)c1ccccc1 (stereo not shown) [fluoxetine, reference compound]
Effect on immobility time, given alone at sub-effective dose (mice [2]): did not affect

CCOc1ccccc1OC(c1ccccc1)C1CNCCO1 (stereo not shown) [reboxetine, reference compound]
Effect on immobility time, given alone at sub-effective dose (mice [2]): did not affect
